Measurements from patent US12251366B1, “Sulforaphane-cysteine for wound healing in diabetic subjects” (KUWAIT UNIVERSITY, priority 2024, dated 2025).

What was measured:
TNF-α = assay: Real-time PCR, LPS-induced TNF-α mRNA in peritoneal macrophages; format: cell-based, mouse; conditions: LPS 100 ng/mL, 1.5 umol/L, RT-PCR
Procedure: (§1) Additional tests were conducted to determine whether SFN-Cys also suppresses TNF-α and IL-6 expression at the mRNA level.
(§2) Thioglycollate-elicited mouse peritoneal macrophages were prepared from C57BL (8-10 weeks old) and cultured in RPMI 1640 with 10% (v/v) FCS Bone marrow-derived macrophages were generated in RPMI medium containing M-CSF (10 ng/mL) according to previously published procedure. For cytokine ELISA assay, cells were seeded at 5×10^5 in 12-well plates, whereas for mRNA expression, the cells were seeded at […]. LPS and used at a dose of 100 ng/mL. Similarly. SFN-Cys was used at a concentration of 1.5 umol/L.
(§3) Total RNA from cells or frozen sponge implants was extracted using the Trizol reagent (Invitrogen), and the RNA integrity was verified by agarose gel electrophoresis. Approximately 1 μg of RNA was reverse transcribed (Superscript II Reverse Transcriptase Kit, Invitrogen) and amplified using the TaqMan Assay on Demand (Applied Biosystems) in a 25 μL reaction volume containing two unlabeled primers, a 6-carboxyfluorescien-labeled TaqMan MGB probe and the master mix. The amplified sequences were assessed using the ABI 7500 Prism Sequence Detection system machine. The results were expressed as mRNA levels normalized to 18S or GAPDH in each sample.

[1] = Muscle weight in diabetic mice (sarcopenia); format: in vivo
Text: (§4) Therapeutic rational was considered for SFN-Cys effectiveness in the following pathological conditions: Sarcopenia-SFN-Cys increased muscle weight in diabetic mice, see FIGS. 4A and 4B; Cardiac fibrosis-SFN-Cys inhibits transforming growth factor beta (TGF-β) expression, see FIG. 4C; Erectile dysfunction-SFN-Cys increased endothelial nitric oxide activity and expression in corpus cavernosum.

[2] = Blood tests on plasma after 21 days of SFN-Cys diet; format: in vivo; conditions: mice, diet 7.5 mg/kg food, mean±SEM
Procedure: To strengthen this conclusion, extensive measurements were conducted on plasma levels of key parameters of kidney and liver toxicities in addition to the lipid and carbohydrate profiles.
(§5) For dietary treatment with SFN-Cys, the SFN-Cys was mixed with a powdered diet (7.5 mg of SFN-Cys per kg of food). The estimated dose delivered by this diet was about 1.0-1.5 mg/kg. The diet was stored at 4° C. and the feeders were refilled daily. Control animals received diet alone. Body weights were recorded twice a week and at the termination of the study, blood was drawn in EDTA-containing tubes, plasma was collected by centrifugation and stored at −80° C. until analysis.
Blood tests were performed on hemolysis free plasma samples obtained from animals receiving 21 days of a normal diet or a diet containing 7.5 mg/kg food of SFN-Cys using commercially available kits.

Nrf2 = Nrf2 activity (NQO1-ARE luciferase) in fibroblasts; format: cell-based, rat
Procedure: To better characterize how SFN-Cys impacts cellular antioxidant levels, the ability of SFN-Cys to regulate the transcription factor nuclear factor erythroid 2-related factor 2 (Nrf2) was assessed, which is a master regulator of the antioxidative stress response that induces the expression of antioxidant proteins such as heme oxygenase (HO) and NAD(P)H dehydrogenase (quinine; NQO1) and key enzymes in the glutathione system. In this context, Nrf2 transcriptional activity was first measured using a vector encoding luciferase driven by the NQO1 promoter. […] Administration of SNF-Cyst at the above indicated concentration (1.5 μM, the lowest effective concentration) ameliorated diabetes-induced suppression of the Nrf2 activity and Nrf2-target genes including HO and NQO1 (FIG. 2A-D).
CF and DF were transfected with the antioxidative stress response element ARE-luciferase and pRenilla vectors using lipofectamine 2000 (Invitogen, USA). In this context, cells were plated and transfected in 12-well plates. Following treatment with SFN-Cys, cells were lysed and firefly and Renilla luciferase activity was determined using Dual luciferase assay (Promega, USA).

heme oxygenase = assay: Tissue mRNA expression of heme oxygenase after SFN-Cys diet; format: in vivo; conditions: heart, kidney, liver and skin; SFN-Cys diet 1.5-2.5 μmol/mouse, 21 days
Procedure: Testing the pharmacodynamic and toxicodynamic properties of SFN-Cys dictated the mixing SFN-Cys with a powdered diet. The estimated dose delivered by this diet was 1.5-2.5 μmol/mouse (n=4). The SFN-Cys diet was stored at 4° C. and the feeders were refilled daily for the duration of the study (21 days). Corresponding animals received food without the drug.
as §5
Total RNA from cells or frozen sponge implants was extracted using the Trizol reagent (Invitrogen), and the RNA integrity was verified by agarose gel electrophoresis. […] The amplified sequences were assessed using the ABI 7500 Prism Sequence Detection system machine. The results were expressed as mRNA levels normalized to 18S or GAPDH in each sample.

IL-6 = assay: Real-time PCR, LPS-induced IL-6 mRNA in peritoneal macrophages; format: cell-based, mouse; conditions: LPS 100 ng/mL, 1.5 umol/L, RT-PCR
Procedure: as §1, §2, §3

[3] = system: transforming growth factor beta (TGF-β); assay: TGF-β expression (cardiac fibrosis); format: in vivo
Text: as §4

[4] = system: wound fibroblasts (DF, CF-GP); assay: Cell viability assay, H2O2 cytotoxicity in wound fibroblasts; format: cell-based, rat; conditions: 1.5 to 5 μM
Procedure: To determine if SFN-Cys is involved in cellular detoxification of oxidant load, wound fibroblasts derived from the granulation tissue of control and diabetic animals with H2O2 were measured for their abilities to survive acute oxidative stress in the presence or absence of SFN-Cys. […] Moreover, CF exposed for 72 hours to high glucose (25 mmole/L and palmitate 200 μmole/L, CF-GP) to mimic the diabetic state produced analogous results to those seen with DF as illustrated in FIG. 2A. Supplementing DF and CF-GP with SFN-Cys at a dose of 1.5 to 5 μM eliminated the reactive oxygen species difference between these cells and enhanced DF and CF-GP resistance to H2O2(FIG. 2A).
Control and diabetic fibroblasts were isolated from wounds inflicted on control Wistar rats (CF) or Goto kakazaki rats (GK), a model of non-obese type 2 diabetes. All information regarding the GK rats and the preparation and culturing of control (CF) and diabetic (DF) fibroblasts was described in detailed in previous publications, Bitar, M S, and Mulla, F. Am J Phyaiol. […]
The response of CF and DF to H2O2 cytotoxicity was measured by seeding the cells into 96-well plates at a density of 5×10^3 to 8×10^3 cells per well and were allowed to adhere overnight in 10% FCS-DMEM medium. […] Cell viability was measured using WST-1 (Dojindo, USA;) according to the manufacturer's instructions.

## C[S+]([O-])CCCCNC(=S)SCC(N)C(=O)O (stereo not shown) [SFN-Cys, Sulforaphane-Cysteine]
TNF-α
  LPS-induced TNF-α mRNA up-regulation: significantly inhibited
[1]
  muscle weight: increased
[2]
  Plasma Alanine aminotransferase: 44.5 ± 17 IU/L
  Plasma Alkaline phosphatase: 27 ± 15 IU/L
  Plasma Aspartate aminotransferase: 172 ± 25 IU/L
  Plasma Creatinine: 8.87 ± 0.91 µmol/L
  Plasma Free fatty acid: 0.41 ± 0.14 mmol/L
  Plasma Glucose: 5.87 ± 0.90 mmol/L
  Plasma Ketone bodies: 0.079 ± 0.01 mmol/L
  Plasma Total bilirubin: 4.23 ± 0.48 µmol/L
  Plasma Total cholesterol: 2.15 ± 0.42 mmol/L
  Plasma Triglyceride: 1.15 ± 0.25 mmol/L
Nrf2; DF and CF-GP, 1.5 μM
  Nrf2 transcriptional activity (NQO1 promoter luciferase): ameliorated
Nrf2; fibroblasts, Nrf2 activity and Nrf2-target genes
  lowest effective concentration: 1.5 µM
Heme oxygenase
  mRNA expression of heme oxygenase relative to control: about 3 folds
IL-6
  LPS-induced IL-6 mRNA up-regulation: significantly inhibited
[3]
  TGF-β expression: inhibits
[4]
  reactive oxygen species difference between DF/CF-GP and control fibroblasts: eliminated
[4]; DF and CF-GP, H2O2 400 μmol/L 4 hours, WST-1
  resistance to H2O2 (cell viability): enhanced
